Drawing on ChEMBL document CHEMBL1153477, “Synthesis and biological evaluation of 3,6-diamino-1H-pyrazolo[3,4-b]pyridine derivatives as protein kinase inhibitors” (Bioorg Med Chem Lett, 2009), this text covers IC50 for 14 molecules.

Test [1] deals with Dual specificity tyrosine-phosphorylation-regulated kinase 1A (Homo sapiens, UniProt Q13627). The test is described as follows: Inhibition of human recombinant GST-fusion DYRK1A expressed in Escherichia coli.
Test [2] addresses Cyclin-dependent kinase 5/CDK5 activator 1 (Homo sapiens, UniProt Q00535). The test is described as follows: Inhibition of human recombinant CDK5/P25 by scintillation counting. Format: protein-complex assay.
For test [3], the target named is Glycogen synthase kinase-3 (Sus scrofa, UniProt B2LUN4+I6LNT8). The test is described as follows: Inhibition of pig GSK3alpha/beta.

Each structure is given as a SMILES string.

Cyclin-dependent kinase 5/CDK5 activator 1, sequence (Q00535 whole entry): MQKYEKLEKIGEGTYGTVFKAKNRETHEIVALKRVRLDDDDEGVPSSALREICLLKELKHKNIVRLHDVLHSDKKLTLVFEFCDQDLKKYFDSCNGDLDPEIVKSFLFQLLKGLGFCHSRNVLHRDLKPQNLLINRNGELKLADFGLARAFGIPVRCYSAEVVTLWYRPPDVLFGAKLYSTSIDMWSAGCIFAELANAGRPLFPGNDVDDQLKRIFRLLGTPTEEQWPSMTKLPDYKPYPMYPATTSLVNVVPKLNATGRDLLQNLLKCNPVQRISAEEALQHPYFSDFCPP
Cyclin-dependent kinase 5/CDK5 activator 1, sequence (Q15078 whole entry, further chain): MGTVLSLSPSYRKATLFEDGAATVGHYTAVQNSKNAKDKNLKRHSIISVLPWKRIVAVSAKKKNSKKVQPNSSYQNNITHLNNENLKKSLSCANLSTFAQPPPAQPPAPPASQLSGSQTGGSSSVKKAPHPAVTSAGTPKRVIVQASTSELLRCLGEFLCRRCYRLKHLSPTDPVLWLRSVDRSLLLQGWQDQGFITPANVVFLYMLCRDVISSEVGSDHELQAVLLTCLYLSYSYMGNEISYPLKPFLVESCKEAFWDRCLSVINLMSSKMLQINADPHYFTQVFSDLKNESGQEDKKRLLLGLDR

Turning to `Cn1nc(N)c2c(-c3ccccc3)c(C#N)c(N)nc21`, the IC50 in test [1], in test [2] and in test [3] was above 10 µM in each case.
As for `N#Cc1cc2c(N)n(-c3ccccc3)nc2nc1N`, the IC50 in test [1], in test [2] and in test [3] was above 10 µM in each case.
As for `COc1nc(NN)c(C#N)c(-c2ccccc2)c1C#N`, the IC50 in test [1], in test [2] and in test [3] was above 10 µM each time.
On to `N#Cc1c(N)nc2[nH]nc(N)c2c1-c1ccccc1`, for which the results for the IC50 in test [1], in test [2] and in test [3] were 11 µM, 0.41 µM and 1.5 µM, respectively.
Consider `CC(=O)Nc1nc2[nH]nc(NC(C)=O)c2cc1C#N`, for which the 50% inhibitory concentration (IC50) in test [1], in test [2] and in test [3] was above 10 µM throughout.
Turning to `Cn1nc(N)c2cc(C#N)c(N)nc21`, the IC50 in test [1], in test [2] and in test [3] was above 10 µM throughout.
Turning to `COc1nc(NNC(C)=O)c(C#N)c(-c2ccccc2)c1C#N`, the IC50 in test [1], in test [2] and in test [3] was above 10 µM in each case.
Consider `CC(=O)Nc1nn(C)c2nc(N)c(C#N)cc12`, for which the IC50 in test [1], in test [2] and in test [3] was above 10 µM throughout.
With `CC(=O)Nc1nc2nn(-c3ccccc3)c(NC(C)=O)c2cc1C#N`, the half-maximal inhibitory concentration (IC50) in test [1], in test [2] and in test [3] was above 10 µM throughout.
On to `N#Cc1cc2c(N)n[nH]c2nc1N`, for which the 50% inhibitory concentration (IC50) in test [1], in test [2] and in test [3] was above 10 µM throughout.
As for `CC(=O)n1nc(N)c2c(-c3ccccc3)c(C#N)c(N)nc21`, the IC50 in test [1], in test [2] and in test [3] was above 10 µM in each case.
With `CC(=O)Nc1nn(C)c2nc(N)c(C#N)c(-c3ccccc3)c12`, the IC50 in test [1], in test [2] and in test [3] was above 10 µM in each case.
Turning to `N#Cc1c(Cl)nc2[nH]nc(N)c2c1-c1ccccc1`, the IC50 in test [1], in test [2] and in test [3] was above 10 µM throughout.
As for `N#Cc1c(N2CCOCC2)nc2[nH]nc(N)c2c1-c1ccccc1`, the IC50 in test [1], in test [2] and in test [3] was above 10 µM in each case.

Broadly, the IC50 is the concentration that inhibits the measured activity by half.
